Data as given in ChEMBL document CHEMBL1201862, “PubChem BioAssay data set” (2004).
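96-well plates; 48 h exposure; 5 concentrations. Endpoints by linear interpolation between flanking doses. Not reached: highest tested concentration assigned. Here, GI50 denotes the concentration required for 50% inhibition of growth.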 The source made the active and inactive calls. Rule as the data show it: active = GI50 up to about 1.1 µM and inactive = higher.

How the values were obtained:
Assay in all cases: NCI-60 cell line screen, 48 h
DLD-1 = tested on: DLD-1
DMS-273 = tested on: DMS-273
LXFL 529 = tested on: LXFL 529
M19-MEL = tested on: M19-MEL
SNB-78 = tested on: SNB-78
XF498 = tested on: XF498
DMS-114 = tested on: DMS-114
KM-20L2 = tested on: KM-20L2
RXF 631 = tested on: RXF 631

Structure (SMILES) | GI50 (DLD-1) | GI50 (DMS-273) | GI50 (LXFL 529) | GI50 (M19-MEL) | GI50 (SNB-78) | GI50 (XF498) | GI50 (DMS-114) | GI50 (KM-20L2) | GI50 (RXF 631)
CCOC(=O)C(=C=Cc1cccs1)C(=O)c1ccccc1 | 14.3 µM (inactive) | 17.4 µM (inactive) | 14.9 µM (inactive) | 17.2 µM (inactive) | 18.3 µM (inactive) | 16.2 µM (inactive) |  |  | 
COc1ccc(Nc2nc3c(N)cc(C(F)(F)F)cc3nc2-c2ccccc2)cc1 | > 100 µM (inactive) | > 100 µM (inactive) | 78.2 µM (inactive) | > 100 µM (inactive) | 60.4 µM (inactive) | 31.7 µM (inactive) | 80.7 µM (inactive) | > 100 µM (inactive) | 44.6 µM (inactive)
C=CCc1cc(-c2cc(CC=C)c(O)c(CNC)c2)cc(CNC)c1O | 15.4 µM (inactive) |  | 15.2 µM (inactive) | 14.2 µM (inactive) | 19.5 µM (inactive) | 16.3 µM (inactive) | 16.1 µM (inactive) | 16.6 µM (inactive) | 15.3 µM (inactive)
N#CC(C#N)=C1SCC(=O)CS1 | > 100 µM (inactive) | > 100 µM (inactive) | > 100 µM (inactive) | > 100 µM (inactive) | > 100 µM (inactive) | > 100 µM (inactive) | > 100 µM (inactive) | > 100 µM (inactive) | > 100 µM (inactive)
C=Cc1c(-c2ccccc2)cnc2[nH]c3ccccc3c12 | > 50 µM (inactive) | > 50 µM (inactive) | > 50 µM (inactive) | > 50 µM (inactive) |  | > 50 µM (inactive) | > 50 µM (inactive) |  | 
O=NN(CC1(O)OCC(O)C(O)C1O)C(Cc1c[nH]c2ccccc12)C(=O)O (stereo not given) | > 100 µM (inactive) | > 100 µM (inactive) |  | > 100 µM (inactive) | > 100 µM (inactive) | > 100 µM (inactive) | > 100 µM (inactive) | > 100 µM (inactive) | > 100 µM (inactive)
CC(=O)Oc1ccccc1C(=O)C1c2cccc(O)c2C(=O)c2c(O)cccc21 | 1.23 µM (inactive) | 1.24 µM (inactive) | 1.29 µM (inactive) | 1.01 µM (active) | 1.27 µM (inactive) | 0.561 µM (active) | 0.366 µM (active) | 2.4 µM (inactive) | 3.01 µM (inactive)
O=C1CSC(/C(=C/c2ccccc2)c2nc3ccccc3[nH]2)=N1 | > 100 µM (inactive) |  | 47.4 µM (inactive) | 65.9 µM (inactive) | > 100 µM (inactive) | 41.3 µM (inactive) | 32.3 µM (inactive) | > 100 µM (inactive) | 
CCCC(O)c1cn(-c2cccc(S(=O)(=O)O)c2)nn1 (stereo not given) | > 100 µM (inactive) | > 100 µM (inactive) | > 100 µM (inactive) | > 100 µM (inactive) | > 100 µM (inactive) | > 100 µM (inactive) | > 100 µM (inactive) | > 100 µM (inactive) | > 100 µM (inactive)
CCc1cccc(CC)c1NC(=O)C1=C(C)NC(C)=C(C(=O)Nc2c(CC)cccc2CC)C1c1ccc2c(c1)OCO2 | 24.3 µM (inactive) | 13.3 µM (inactive) | 15.9 µM (inactive) | 16.7 µM (inactive) | 22.6 µM (inactive) |  |  | 16.9 µM (inactive) | 
C=C1C2=C(CCCC2)C(=O)OC12CCCCC2 | 92.7 µM (inactive) | 51.4 µM (inactive) | 40.7 µM (inactive) | 46.5 µM (inactive) |  | 97.5 µM (inactive) | 29.5 µM (inactive) | > 100 µM (inactive) | 72.1 µM (inactive)
CC(C)(C)NNC(=O)/C(=C/c1ccc([N+](=O)[O-])cc1)NC(=O)c1ccccc1 | 43.5 µM (inactive) | 33.7 µM (inactive) | > 100 µM (inactive) | > 100 µM (inactive) | > 100 µM (inactive) | > 100 µM (inactive) | 18.6 µM (inactive) | > 100 µM (inactive) | 
O=C(OCCO)C1CC2CC1C1(C2)OCCO1 (stereo not given) | > 100 µM (inactive) | > 100 µM (inactive) | > 100 µM (inactive) | > 100 µM (inactive) | > 100 µM (inactive) | > 100 µM (inactive) | > 100 µM (inactive) | > 100 µM (inactive) | 
C/C(=N/Nc1ccc([N+](=O)[O-])cc1[N+](=O)[O-])C(CC(C(=O)Nc1ccccc1C)/C(C)=N\Nc1ccc([N+](=O)[O-])cc1[N+](=O)[O-])C(=O)Nc1ccccc1C (stereo not given) | 28.4 µM (inactive) | 14.8 µM (inactive) | 14.3 µM (inactive) | 12.4 µM (inactive) | 16.4 µM (inactive) | 14.5 µM (inactive) | 6.87 µM (inactive) | 31 µM (inactive) | 
N#CCC(=O)N1CCCCCCC1 | > 100 µM (inactive) | 35.7 µM (inactive) | 77.8 µM (inactive) |  | > 100 µM (inactive) |  | 31.3 µM (inactive) | > 100 µM (inactive) | 
O=C(COC(=O)c1cccc2c(=O)c3ccccc3[nH]c12)Nc1ccc(Cl)cc1 | 16.9 µM (inactive) |  | 61.7 µM (inactive) | > 100 µM (inactive) | 25.7 µM (inactive) | 46.8 µM (inactive) | 58.6 µM (inactive) | > 100 µM (inactive) | 
O=C(NC12CC3CC(CC(F)(C3)C1)C2)c1ccccc1 | > 100 µM (inactive) | > 100 µM (inactive) | > 100 µM (inactive) | > 100 µM (inactive) | > 100 µM (inactive) | > 100 µM (inactive) | > 100 µM (inactive) | > 100 µM (inactive) | 
CC1(C)OCC(CO)(Nc2nc(N3CC3)nc(N3CC3)n2)CO1 | 31.3 µM (inactive) | 3.04 µM (inactive) | 24.5 µM (inactive) | 13.9 µM (inactive) | 22.3 µM (inactive) | 14.3 µM (inactive) | 4.65 µM (inactive) | 18.6 µM (inactive) | 
CCN(CC)Cc1cc(Nc2c3ccccc3nc3c2[nH]c2ccccc23)ccc1O | 1.25 µM (inactive) | 0.565 µM (active) | 1.39 µM (inactive) | 1.63 µM (inactive) | 2 µM (inactive) | 1.76 µM (inactive) | 1.64 µM (inactive) | 0.867 µM (active) | 1.8 µM (inactive)
COC1(C)C(=O)N2C1N(C(=O)OC(C)(C)C)CC2(C)C (stereo not given) | > 100 µM (inactive) | > 100 µM (inactive) | > 100 µM (inactive) | > 100 µM (inactive) | > 100 µM (inactive) |  | 42.8 µM (inactive) | > 100 µM (inactive) | 
COc1ccc(C(=O)C/C(=N/NC(N)=S)C(=O)Nc2ccccc2)cc1 | > 100 µM (inactive) | > 100 µM (inactive) | 97.7 µM (inactive) | > 100 µM (inactive) | > 100 µM (inactive) | > 100 µM (inactive) | > 100 µM (inactive) | > 100 µM (inactive) | 
COC(=O)C1=C(C)C(=O)[C@H]2C(C(=O)OC)CCCC[C@@H]12 (stereo not given in full) | > 100 µM (inactive) | 90.2 µM (inactive) | > 100 µM (inactive) | > 100 µM (inactive) | > 100 µM (inactive) | 89.9 µM (inactive) | 20.9 µM (inactive) | > 100 µM (inactive) | 
